Columns and labels:
fear memory in mice = assay: Contextual fear conditioning, freezing behavior; type: in vivo
Experimental: Mice (n=8, by condition) were treated with vehicle or cotinine (1 and 5 mg/kg/day) for 8 days and then subjected to Fear conditioning training as described. After 24 hours (h) mice were tested for freezing behavior when re-exposed to the same context (the chamber) every day for […].
To study the effect of cotinine on contextual fear memory, we pretreated mice with vehicle or cotinine at 1 and 5 mg/kg/day for 8 days. After this time, mice were trained for contextual fear conditioning (FC). Briefly, mice were trained to associate the context (the chamber) with an aversive unconditioned stimulus (1 mA foot shock for 2 seconds). After the FC training, the mice were re-exposed to the context every day for 7 consecutive days. The mice were treated daily with vehicle or cotinine at 1 and 5 mg/kg during the FC training and re-exposure to the context. The fear memory of the mice expressed as freezing behavior was assessed each day after re-exposure to the context. The fear memory after 24 h of the FC training is considered a measure of retention of the fear memory. The reduction of fear memory expressed as a reduction in the freezing behavior after the retention trial is evaluated as the extinction of the fear memory.

[1] = tested on: rat cortical cells exposed to Aβ; assay: Aβ toxicity assay, double calcein-AM and PI staining; type: cell-based; details: 5 μM Aβ + 10 μM cotinine, 24 h; Aβ alone 63%
Experimental: Primary cortical embryonic rat neurons were incubated with 5 μM Aβ in the presence or absence of various concentrations cotinine for […] as described (Echeverria et al. (2005)). Cell viability was assessed using the MTT assay (Sigma). As an alternative approach cell viability after exposure to Aβ and cotinine was assessed using the vital dye calcein-AM (green fluorescence) to stain live cells and propidium iodide to stain dead cells. MTT values were normalized to control values considered 100%.
In the double calcein-AM and Propidium iodide (PI) staining, PI binds to nucleic acid and is commonly used for identifying dead cells, since it is impermeable to the membranes of viable cells. Calcein-AM is converted to calcein by live cells, binds to the cellular calcium, and stains the cells by emitting a green fluorescence. […] After incubation cells were washed with PBS and the number of calcein-stained (green) and nuclei stained with PI (red) were analyzed by fluorescence microscopy. More than 600 cells per condition were analyzed in several 20× focal planes and recorded.
To investigate the effect of cotinine on Aβ neurotoxicity, rat cortical cells were grown in conditions that permitted us to obtain a neuron-enriched culture (around 95% neuron and 5% glial cells) for 7-10 days. […] After 24 h, cell survival was assessed by using MTT and PI and calcein-AM cell viability assays.

Arc = assay: BDNF-induced Arc expression in primary cortical neurons, Western blot; type: cell-based; details: BDNF plus cotinine 2 h, 7 DIV cortical neurons
Excerpt: Then cells were washed with PBS and disrupted by sonication in lysis buffer. Cell extracts were separated by SDS-PAGE and analyzed by Western blot with antibodies against Arc and β-tubulin, which was used as a control (FIG. 16B). The histogram represents the mean±SEM of experiments performed in triplicate. […] BDNF, brain-derived neurotrophic factor.

Aβ = Aβ (Homo sapiens, UniProt P05067); assay: Binding of cotinine to Aβ in vitro
Chain of Aβ (P05067 672-713 limits assumed): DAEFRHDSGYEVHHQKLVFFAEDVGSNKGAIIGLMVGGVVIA

Aβ1-42 peptide = target: T1, Aβ1-42 peptide (Homo sapiens, UniProt P05067); assay: AFM analysis of Aβ1-42 fibrillation; type: biochemical
T1 construct: Aβ1-42 peptide was obtained from American Peptide; purchased American Peptide (Sunnyvale, Calif., USA)
T1 sequence (P05067 672-713 limits assumed): as above
Experimental: Since the aggregation behavior of Aβ is dependent on the presence of small concentrations of aggregated forms of the peptide, that are present in many commercial samples, we prepared the Aβ solution by first dissolving the peptide in Hexafluoroisopropanol (HFIP), a protocol that produces a starting solution constituted only of Aβ monomers (Chromy et al. (2003)). Lyophillized Aβ1-42 (American peptide) (1 mg) was dissolved in HFIP, evaporated and re-dissolved in 22 μl of dimethyl sulfoxide (DMSO, St. Louis, Mo.). These peptide preparations were then diluted in PBS buffer pH 7.4 alone or PBS plus cotinine to obtain solutions containing 1 mM Aβ1-42 with and without 2 mM cotinine. Then the Aβ1-42 solutions were incubated for 10 days and the formation of oligomers and fibers was examined.
20 μl aliquots of Aβ solutions were deposited on freshly cleaned and dried silicon wafers (approximately 1 mm thick). After waiting for 10 min, non-adsorbed portions of the samples were washed with de-ionized water (2000 μl). The wet surface of the silicon wafer was then dried using gentle flow of air.
The AFM analysis was performed using an AFM apparatus (AFM, βA multimode SPM, Model no. 920-006-101, Vecco) that permits the acquisition of images using a tapping mode approach. This approach allows intermittent contact of the tip with the sample and minimizes the chances of deformation of the peptide samples. The cantilever and the tip were made up of silicon and the cantilever force constant was approximately 20-100 N/m with the resonance frequency between 200-400 khz. The scan rate was between 1.0 to 1.2 Hz. The analysis of fibrils and oligomers was performed using the software NanoScope Control, version 5.30.
To investigate whether cotinine in addition to Aβ oligomerization also affected fibril formation, we used Atomic force miscroscopy (AFM) to analyze Aβ aggregation. The solutions were prepared dissolving Aβ in HFIP and after evaporation, in PBS alone or containing cotinine and incubated at 37° C. for 3 and 10 days.

CN1C(=O)CC[C@H]1c1cccnc1 [cotinine]
freezing in the retention test versus vehicle (fear memory in mice; cotinine 1 mg/kg/day, 24 h after FC training, p=0.0191): significantly lower percentage of freezing | freezing in the extinction test versus vehicle (fear memory in mice; cotinine 5 mg/kg, day 6 of re-exposure, p=0.0218): significantly lower percentage of freezing | cell survival, % of vehicle-treated control cells (PI and calcein-AM) [1]: 83% | BDNF-induced expression of Arc (Arc): enhances the BDNF-induced expression of Arc | binding to Aβ (Aβ): high affinity | effect on Aβ aggregation and fibril length (AFM) (Aβ1-42 peptide; 1 mM Aβ1-42 + 2 mM cotinine, 10 days 37° C.): reduced Aβ aggregation and the length of Aβ fibrils | average length of Aβ fibrils (Aβ1-42 peptide; 1 mM Aβ1-42 + 2 mM cotinine, 10 days 37° C., n=23, without cotinine 345±42): 223±36 | average diameter of the fibers (Aβ1-42 peptide; unchanged by presence of cotinine): 22-24 nm

Reference: patent US10238641B2, “Materials and methods for diagnosis, prevention and/or treatment of stress disorders and conditions associated with A-beta peptide aggregation” (The United States of America as represented by the …, priority 2008, dated 2019)
